Assay results taken from ChEMBL document CHEMBL1136073, “2,4-Dicarboxy-pyrroles as selective non-competitive mGluR1 antagonists: further characterization of 3,5-dimethyl pyrrole-2,4-dicarboxylic acid 2-propyl ester 4-(1,2,2-trimethyl-propyl) ester and structure-activity relationships” (Bioorg Med Chem Lett, 2003).

What was measured:
Assay type in all cases: cell-based; call rule not given here
[1] = target: T1, Metabotropic glutamate receptor 1 (Rattus norvegicus, UniProt P23385); test: In vitro inhibition of rat Metabotropic glutamate receptor 1 in CHO cells using the CDP-DAG accumulation method: Not active uM
[2] = target: T1, Metabotropic glutamate receptor 1; test: In vitro inhibition of rat metabotropic glutamate receptor 1 in CHO cells using the CDP-DAG accumulation method.
[3] = target: T1, Metabotropic glutamate receptor 1; test: In vitro inhibitory concentration required against rat mGluR1a in CHO cells using the CDP-DAG accumulation method
[4] = target: T1, Metabotropic glutamate receptor 1; test: In vitro inhibitory concentration required against rat mGluR1a in CHO cells using the CDP-DAG accumulation method: Not active uM

T1 sequence (P23385 whole entry): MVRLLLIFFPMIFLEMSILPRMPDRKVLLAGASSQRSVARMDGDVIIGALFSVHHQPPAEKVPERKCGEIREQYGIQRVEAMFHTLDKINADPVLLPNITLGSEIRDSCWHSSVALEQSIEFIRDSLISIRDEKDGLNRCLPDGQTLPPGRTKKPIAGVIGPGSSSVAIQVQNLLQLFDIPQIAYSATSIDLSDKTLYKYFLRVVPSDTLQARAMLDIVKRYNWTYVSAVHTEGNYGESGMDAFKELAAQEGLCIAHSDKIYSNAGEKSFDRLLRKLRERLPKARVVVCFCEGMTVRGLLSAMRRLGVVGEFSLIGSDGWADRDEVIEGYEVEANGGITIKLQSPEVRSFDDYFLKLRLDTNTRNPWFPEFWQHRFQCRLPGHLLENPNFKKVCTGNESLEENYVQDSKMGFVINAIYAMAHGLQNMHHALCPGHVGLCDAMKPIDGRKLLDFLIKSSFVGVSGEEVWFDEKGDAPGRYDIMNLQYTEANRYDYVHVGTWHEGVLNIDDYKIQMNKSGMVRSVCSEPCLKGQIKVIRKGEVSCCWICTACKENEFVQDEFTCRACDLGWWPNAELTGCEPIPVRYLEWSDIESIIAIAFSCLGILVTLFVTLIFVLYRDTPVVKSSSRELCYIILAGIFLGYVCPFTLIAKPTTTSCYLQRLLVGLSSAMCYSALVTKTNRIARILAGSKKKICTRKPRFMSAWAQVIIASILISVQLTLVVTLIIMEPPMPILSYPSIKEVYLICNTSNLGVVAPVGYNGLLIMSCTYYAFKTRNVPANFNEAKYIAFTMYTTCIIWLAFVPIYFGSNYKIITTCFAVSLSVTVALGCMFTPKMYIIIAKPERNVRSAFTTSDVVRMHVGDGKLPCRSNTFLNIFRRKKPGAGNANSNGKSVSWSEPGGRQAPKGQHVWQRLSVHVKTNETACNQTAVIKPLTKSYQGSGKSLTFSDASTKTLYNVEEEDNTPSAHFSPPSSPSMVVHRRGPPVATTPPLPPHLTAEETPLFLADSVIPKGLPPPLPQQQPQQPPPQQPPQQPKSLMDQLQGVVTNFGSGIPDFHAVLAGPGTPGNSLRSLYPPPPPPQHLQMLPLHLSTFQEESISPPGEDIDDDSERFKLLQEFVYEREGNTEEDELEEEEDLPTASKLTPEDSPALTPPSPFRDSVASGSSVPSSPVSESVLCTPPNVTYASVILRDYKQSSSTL

SMILES | IC50 [2] [nM] | further results
CCCOC(=O)c1[nH]c(CN)c(C(=O)OC(C)(C)C)c1C |  | IC50 [1]: Not Active
CCN1CCC(OC(=O)c2[nH]cc(C(=O)OC(C)C(C)(C)C)c2C)C1 (stereo unspecified) | 260 | 
CCCOC(=O)c1c(C)c(C(=O)OC(C)(C)C)c(C)n1C(=O)OC(C)(C)C |  | IC50 [3]: 2300 nM
CCCOC(=O)c1[nH]c(CNCc2ccccc2)c(C(=O)OC(C)(C)C)c1C |  | IC50 [1]: Not Active
C=CCOC(=O)Cn1c(C)c(C(=O)OC(C)(C)C)c(C)c1C(=O)OCCC | 12600 | 
CCCOC(=O)c1c(C)c(C(=O)OC(C)(C)C)c(C)n1CCN1CCOCC1 |  | IC50 [4]: Not Active
CCCOC(=O)c1c(C)c(C(=O)OC(C)(C)C)c(C)n1CCCO[Si](c1ccccc1)(c1ccccc1)C(C)(C)C |  | IC50 [1]: Not Active
CCCOC(=O)c1[nH]cc(C(=O)OC(C)C(C)(C)C)c1C (stereo unspecified) | 4 | 
CCCOC(=O)c1[nH]c(C=O)c(C(=O)OC(C)(C)C)c1C | 2000 | 
CCCOC(=O)c1c(C)c(C(=O)OC(C)(C)C)c(C)n1CCO[Si](c1ccccc1)(c1ccccc1)C(C)(C)C |  | IC50 [1]: Not Active
Cc1c(C(=O)OC(C)(C)C)c[nH]c1C(=O)OC(C)(C)C | 100 | 
CCCOC(=O)c1[nH]c(C(=O)OC)c(C(=O)OC(C)(C)C)c1C | 3200 | 
CCCOC(=O)c1[nH]c(C(=O)Sc2ccccn2)c(C(=O)OC(C)(C)C)c1C | 3200 | 
Cc1c(C(=O)OC(C)C(C)(C)C)c[nH]c1C(=O)Oc1cccnc1 (stereo unspecified) | 720 | 
CCCOC(=O)c1[nH]c(C)c(C(=O)OC(C)C(C)(C)C)c1C (stereo unspecified) | 15800 | 
CCCOC(=O)c1[nH]c(C(=O)O)c(C(=O)OC(C)(C)C)c1C |  | IC50 [1]: Not Active
Cc1c(C(=O)OC(C)(C)C)c[nH]c1C(=O)O |  | IC50 [1]: Not Active
Cc1c(C(=O)OC(C)C(C)(C)C)c[nH]c1C(=O)OC(C)CN(C)C (stereo unspecified) | 390 | 

SMILES | IC50 [2] [nM] | further results
Cc1c(C(=O)OC(C)C(C)(C)C)c[nH]c1C(=O)OC(C)(C)C (stereo unspecified) | 17 | 
CCCOC(=O)c1c(C)c(C(=O)OC(C)(C)C)c(C)n1C |  | IC50 [3]: 1000 nM
CCCOC(=O)c1c(C)c(C(=O)OC(C)(C)C)c(C)n1CN1CCCCC1 |  | IC50 [1]: Not Active
CCCOC(=O)c1[nH]c(C(=O)NCC2CC2)c(C(=O)OC(C)(C)C)c1C | 2500 | 
CCCOC(=O)c1c(C)c(C(=O)OC(C)(C)C)c(C)n1CC(=O)N(C)C |  | IC50 [1]: Not Active
Cc1c(C(=O)OC(C)(C)C)c[nH]c1C(=O)Sc1ccccn1 | 3000 | 
CCCOC(=O)c1[nH]c(COC(C)=O)c(C(=O)OC(C)(C)C)c1C | 2700 | 
CCCOC(=O)c1[nH]cc(C(=O)OC(C)(C)C)c1C | 75 | 
C=CCN1CCN(CCn2c(C)c(C(=O)OC(C)(C)C)c(C)c2C(=O)OCCC)CC1 |  | IC50 [4]: Not Active
Cc1c(C(=O)OC(C)(C)C)c[nH]c1C(=O)OCc1ccco1 | 1200 | 
CCCOC(=O)c1c(C)c(C(=O)OC(C)(C)C)c(C)n1CC(=O)O |  | IC50 [1]: Not Active
CCCOC(=O)c1[nH]c(CO)c(C(=O)OC(C)(C)C)c1C | 7900 | 
CCCOC(=O)c1[nH]c(Cl)c(C(=O)OC(C)C(C)(C)C)c1C (stereo unspecified) | 160 | 
Cc1c(C(=O)OC(C)C(C)(C)C)c[nH]c1C(=O)Oc1ccncn1 (stereo unspecified) | 1450 | 
Cc1c(C(=O)OC(C)C(C)(C)C)c[nH]c1C(=O)Oc1c(F)c(F)c(F)c(F)c1F (stereo unspecified) | 160 | 
CCOC(=O)c1[nH]cc(C(=O)OC(C)(C)C)c1C | 340 | 
Cc1c(C(=O)OC(C)(C)C)c[nH]c1C(=O)OCC1CC1 | 48 | 
CCCOC(=O)c1c(C)c(C(=O)OC(C)(C)C)c(C)n1CCCO | 5800 | 
